The source made the active and inactive calls.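 How the source made its calls: active means compounds giving half or more protection of infected cells from virus-caused growth loss, again on retest; inactive means the rest.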 Where a SMILES comes first, the peptide text is derived from it. The star is where a group is joined. Boc = CC(C)(C)OC(=O)*; OcHex = C1CCC(O*)CC1
System: CEM cells HIV-1 protection, formazan growth assay
Assay: NCI AIDS Antiviral Assay
Details: for IC50: measured here: growth of uninfected CEM cells
How it was run: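 Human CEM cells, uninfected and HIV-1-infected, received five drug concentrations, and growth was read by soluble formazan assay. Compounds giving at least 50% protection were retested; reproducible 100% protection defined confirmed active.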

SMILES	EC50 [µM]	IC50 [µM]	outcome
C=C[C@@]1(C)CC2CC[C@]3(C)C(C)=CC(=O)CC3[C@]2(C)CC1O (stereo partly specified)	> 200	107	
Cc1ccccc1[P+](Cc1ccccc1)(c1ccccc1)c1ccccc1C	> 200	0.776	
CCC(=O)N(C)[C@@H](C)C(=O)O[C@H]1CC(=O)N(C)c2cc(cc(OC)c2Cl)C/C(C)=C/C=C[C@@H](OC)[C@@]2(O)C[C@H](OC(=O)N2)[C@@H](C)[C@@H]2O[C@@]12C			inactive
COC(=O)C1Cc2c(n(Cc3ccccc3)c3ccccc23)C(CCC(=O)O)N1C(C)C (stereo unspecified)			inactive
Cc1ccc(-n2cc(/C(N)=N/O)c3ccccc3c2=O)cc1	> 89.1	> 89.1	
COC(=O)C(Cc1c(C2Nc3ccccc3C2CC(NC(C)=O)C(=O)OC)[nH]c2ccccc12)NC(C)=O (stereo unspecified)	> 200	> 200	
Cc1noc(NS(=O)(=O)c2ccc(NC(=O)c3ccccc3SC(=O)CCCC[n+]3ccccc3)cc2)c1C	24	53.7	
COC(=O)c1nc(-c2ccc3c(n2)C(=O)C(N)=C(OC)C3=O)c(N)c(-c2ccc(OC)c(OC)c2O)c1C	> 10	1.66	
CCN1CCN=c2c3cc(OC)ccc3n3cnc4ccc1c2c43	> 20	0.0955	
O=C(O)c1ccc(S(=O)(=O)c2cccc([N+](=O)[O-])c2)cc1	> 200	> 200	
CC(=O)N1N=C(c2ccc(N=Nc3c(C)nn(-c4ccccc4)c3C)cc2)OC1c1ccc(Cl)cc1 (stereo unspecified)	> 18.6	> 18.6	
CCC(N)Cc1c[nH]c2ccccc12 (stereo unspecified)	> 200	> 200	
CC1=NN(C(=O)CC(=O)Nc2cccc(Cl)c2)C(=O)C1N=Nc1ccc(S(N)(=O)=O)cc1 (stereo unspecified)	> 55	> 55	
COC1=CC23C=CC1[C@@H](c1ccccc1)C2=C(C)C(=O)N3C(=O)NC1CCCCC1 (stereo partly specified)	> 12.9	> 12.9	
O=C(CCc1nnc2s/c(=C\c3ccc(Cl)c(Cl)c3)c(=O)n12)Nc1ccc(Cl)c(Cl)c1	> 13.2	> 13.2	
Nc1n[n+]([O-])c2cc([N+](=O)[O-])ccc2[n+]1[O-]	> 20	0.603	
CCn1c(SCC(=O)N/N=C2\SCC(=O)N2c2ccc(C)cc2)nc2ccccc2c1=O	> 200	66.1	
CC(=O)N(NC(=O)P(=O)(OC(C)C)OC(C)C)c1ccc([N+](=O)[O-])cc1	> 129	> 129	
CNc1ccc(C)cc1S(=O)(=O)c1ccc([N+](=O)[O-])cc1	> 200	> 200	
CC(=O)Oc1ccc2c3c4nc5ccccc5nc4cc(OC(C)=O)c3n(C)c2c1	> 5.01	> 5.01	

SMILES	EC50 [µM]	IC50 [µM]	outcome
COc1ccc(/C(C#N)=C/c2ccc(N(C)CCC#N)cc2)cc1	> 200	3.16	
O=P1(N2CCCCC2)OCC2(CO1)COP(=O)(N1CCCCC1)OC2 (stereo unspecified)	> 200	> 200	
CC1(N2CCOCC2)CC2C(=[N+]1[O-])CCC/C2=N/O (stereo unspecified)	> 200	> 200	
O=C1C2=C(/C=C/c3ccccc3)OCCC2=NN1c1ccccc1	> 42.7	7.59	
O=c1[nH]c2ccc([N+](=O)[O-])cc2nc1/C=C(\O)c1ccccc1	> 200	> 200	
Cn1nnnc1SC(F)(F)c1nc2ccccc2o1	126	> 200	
O=C1C2C3SC(c4cc5ccccc5cc43)C2C(=O)N1c1ccccc1 (stereo unspecified)			inactive
Nc1nccc(NCC2(CO)CCC2)n1	> 200	> 200	
CSC1=C(C#N)C(=S)N=C(N)C1C(=O)Nc1ccc(C)cc1 (stereo unspecified)	> 200	> 100	
CC(C)CC(NC(=O)OC(C)(C)C)C(=O)NC(CCC(=O)OC1CCCCC1)C(N)=O (stereo not drawn) (Boc-Leu-Glu(OcHex)-NH2; configuration not given here)	> 200	126	
O=C1C=Cc2cc(Br)ccc2C12CCc1c(O)ccc3cc(Br)cc2c13 (stereo unspecified)			inactive
CN(C)CC1CCCCCCCCCC(CN(C)C)C1=O (stereo unspecified)	> 5.89	> 5.89	
CCOC(=O)c1ccc(N2C(=O)Cc3ccccc3C2=O)cc1			inactive
CCc1ccccc1NC(=O)C1=C(C)NC(C)=C(C(=O)Nc2ccccc2CC)C1c1cccc([N+](=O)[O-])c1	> 19.1	> 19.1	
CCCCN1CCC(O)(c2cc(C(=O)O)[nH]c2-c2cc(C)no2)C1=O (stereo unspecified)	> 200	70.8	
Clc1ccc(CCn2cncn2)cc1	> 537	525	
Cc1cc(OC(=O)c2c(C)cc(OC(=O)c3c(C)cc(O)cc3O)cc2O)cc(O)c1C(=O)O	> 77.6	> 77.6	
COc1cc(-c2nccc3cc(OC)c(OC)cc23)ccc1O			inactive
CCCc1cc(=O)oc2c3c(c4c(c12)OC(C)(C)C=C4)O[C@H](C)[C@@H](C)[C@H]3O[Si](C)(C)C(C)(C)C	> 200	> 200	
N=c1nc(N)nc2c3ccccc3nnn12	> 24.5	> 24.5	

SMILES	EC50 [µM]	IC50 [µM]	outcome
COC(=O)C1=CCC2c3[nH]c4ccccc4c3CCN2C1 (stereo unspecified)	> 91.2	> 91.2	
CC(=O)NC(CCC(=O)c1ccc(Cl)cc1Cl)(C(=O)O)C(=O)O	> 200	> 200	
NS(=O)(=O)c1ccc(Nc2c3ccccc3nc3c(C(=O)NC(CO)(CO)CO)cccc23)cc1	> 200	3.39	
O=C1/C(=C\c2cccc(Oc3ccccc3)c2)SC(c2ccccc2)N1c1ccc(Cl)cc1 (stereo unspecified)	> 20	1.29	
CCOC(=O)C(NC(=O)c1ccccc1)(N1CCN(c2cc3c(cc2F)c(=O)c(C(=O)O)cn3CC)CC1)C(F)(F)F (stereo unspecified)	> 200	34.7	
CCOC(=O)CSc1nc(N)c2c(-c3ccccc3)c3c(nc2n1)CCCC3	> 200	> 200	
COc1cc2cc[n+]3c(C)c4cc(OC)c(OC)cc4c([O-])c3c2cc1OC	> 200	123	
CC(CO)CCNc1ncnc2c1ncn2CCC(=O)OC(C)(C)C (stereo unspecified)	> 200	> 200	
CC1=CC(C)(C)NC(=S)N1c1ccc(N(C)C)cc1			inactive
COC1/C=C\OC2(C)Oc3c(C)c(O)c4c(O)c(cc(OCC(=O)N(C)Cc5ccccc5)c4c3C2=O)NC(=O)/C(C)=C\C=C/C(C)C(O)C(C)C(O)C(C)C(OC(C)=O)C1C (stereo unspecified)	> 200	39.8	
O=C(CO)CC(=O)C(=O)Nc1cccc(C(F)(F)F)c1			inactive
CSc1ccc(/C=C/c2ccnc3ccccc23)cc1	> 13.5	> 13.5	
CC1CCOc2ccc(cc2)C=Nc2ccc(cc2)CCc2ccc(cc2)N=Cc2ccc(cc2)OCC1 (stereo unspecified)	> 200	> 200	
C#CCn1c(=O)c2cc(OC)c(OC)cc2n(CC#C)c1=O			inactive
Cc1cc(C#N)c(Nc2ccccc2[N+](=O)[O-])s1	> 200	42.7	
CC(C)(C)OC(=O)NC(Cc1ccc(OCc2ccccc2)cn1)C(=O)O (stereo unspecified)	> 200	> 200	
Cc1cc(=O)n2nc(CCl)sc2n1	> 200	9.33	
COc1ccc(/C=C2/CSCC3=C2NC(=S)NC3c2ccc(OC)c(OC)c2OC)c(OC)c1OC (stereo unspecified)	> 200	8.51	
c1cc2c(c(CC3CO3)c1CC1CO1)OCCOCCOCCOCCO2 (stereo unspecified)	> 661	1.38	
CC12CCCC(C(=O)O)(C1)[C@H](C(C)(C)C(=O)O)CC2 (stereo partly specified)	> 200	> 200	
